The values that follow come from ChEMBL document CHEMBL1201862, “PubChem BioAssay data set” (2004).

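Results reflect a 48-hour exposure of cells in 96-well plates to compound at five concentrations. GI50 is the concentration that inhibits growth by half.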 Calls of active or inactive are those of the source. No stated cut-off is given here; in the data, active = GI50 up to about 1.1 µM and inactive = higher.

Test systems include A498; CAKI-1; CCRF-CEM; COLO 205; DU-145; HCT-116; LOX IMVI; M14; NCI-H226; NCI-H460; OVCAR-3; OVCAR-8; SF-268; SK-MEL-5; SNB-19; SNB-75; SW-620; TK-10; UO-31; SR.
Test in all cases: DTP human tumour cell line panel, 48 h

The GI50 is the concentration giving 50% growth inhibition. Regarding `Oc1ccc2ccccc2c1Cc1c(O)ccc2ccccc12`, the GI50 was 18.2 µM (inactive) in the test on A498; 17.1 µM (inactive) in the test with CAKI-1; 19.3 µM (inactive) with CCRF-CEM; 17.9 µM (inactive) in the test on COLO 205; 17.9 µM (inactive) in the test on DU-145; 16.1 µM (inactive) in the test on HCT-116. Besides, the GI50 was 15.2 µM (inactive) in the test on LOX IMVI; 16.7 µM (inactive) with M14; 20.9 µM (inactive) with NCI-H226; 26.5 µM (inactive) in the test on NCI-H460; 11.2 µM (inactive) in the test on OVCAR-3; 15.6 µM (inactive) with OVCAR-8. The GI50 was 14 µM (inactive) with SF-268; 16.1 µM (inactive) in the test with SK-MEL-5; 18.4 µM (inactive) with SNB-19; 20.5 µM (inactive) in the test with SNB-75; 16 µM (inactive) in the test with SW-620; 21 µM (inactive) in the test with TK-10. The GI50 in the test with UO-31 was 15 µM (inactive).
`CN(C)CCN(C)CC1COC(C)(C)O1` (stereo unspecified): the GI50 in the test with A498, in the test on CAKI-1, in the test with CCRF-CEM, in the test with COLO 205, in the test with HCT-116 and with LOX IMVI was > 100 µM (inactive) throughout. Further, the GI50 with M14, in the test on NCI-H226, in the test with NCI-H460, in the test with OVCAR-3, in the test with OVCAR-8 and in the test with SF-268 was > 100 µM (inactive) throughout. The GI50 in the test with SK-MEL-5, in the test on SNB-19, in the test on SNB-75, in the test on SR, with SW-620 and with TK-10 was > 100 µM (inactive) each time. Further, in the test with UO-31, the GI50 was > 100 µM (inactive).
With `Cc1c(N)nc(C2CC(=O)N2CC(N)C(N)=O)nc1C(=O)NC(C(=O)NC(C)C(O)C(C)C(=O)NC(C(=O)NCCc1nc(-c2nc(C(=O)NCCNCC(C)O)cs2)cs1)C(C)O)C(OC1OC(CO)C(O)C(O)C1OC1OC(CO)C(O)C(OC(N)=O)C1O)c1c[nH]cn1` (stereo unspecified), the GI50 is 5.35 µM (inactive) with A498; < 0.0426 µM (active) with CAKI-1; 7.74 µM (inactive) in the test with CCRF-CEM; 3.08 µM (inactive) in the test with COLO 205; 7.87 µM (inactive) in the test with DU-145; 0.148 µM (active) with HCT-116. Also, the GI50 in the test with LOX IMVI was 0.184 µM (active); with M14, 2.26 µM (inactive); in the test with NCI-H226 it was 0.0223 µM (active); in the test on NCI-H460, 0.1 µM (active); in the test with OVCAR-3, 6.56 µM (inactive); in the test on OVCAR-8, 3.36 µM (inactive). The GI50 was 0.5 µM (active) with SF-268; 0.809 µM (active) with SK-MEL-5; 5.38 µM (inactive) in the test on SNB-19; 0.344 µM (active) in the test with SNB-75; 13.9 µM (inactive) with SW-620; 37.6 µM (inactive) in the test with TK-10. For the same compound, the 50% growth inhibitory concentration (GI50) with UO-31 was 0.813 µM (active).
With `C1CN(c2nc3c(nnc4nc(N5CCOCC5)sc43)s2)CCO1`, the GI50 with A498 is > 100 µM (inactive); with CAKI-1, > 100 µM (inactive); in the test on CCRF-CEM it was 52.8 µM (inactive); in the test on COLO 205, > 100 µM (inactive); in the test with DU-145, > 100 µM (inactive); with HCT-116, > 100 µM (inactive). Further, the GI50 with LOX IMVI was > 100 µM (inactive); with M14 it was > 100 µM (inactive); in the test on NCI-H226, 84.7 µM (inactive); with OVCAR-3, 78.3 µM (inactive); in the test with OVCAR-8 it was > 100 µM (inactive); with SF-268, 49.7 µM (inactive). The GI50 with SK-MEL-5 was > 100 µM (inactive); in the test with SNB-19 it was 89.1 µM (inactive); in the test with SW-620 it was > 100 µM (inactive); in the test with TK-10, > 100 µM (inactive); with UO-31, > 100 µM (inactive).
Regarding `NNC(=O)c1c(SCc2ccccc2)nc2c3ccccc3ccn12`, the GI50 in the test with A498 was 11.6 µM (inactive); in the test with CAKI-1 it was 15 µM (inactive); in the test with CCRF-CEM it was 2.92 µM (inactive); in the test with COLO 205, 23.9 µM (inactive); with DU-145 it was 23.9 µM (inactive); in the test with M14, 14.5 µM (inactive). The GI50 is 22.1 µM (inactive) with NCI-H226; 14.8 µM (inactive) with NCI-H460; 2.92 µM (inactive) with OVCAR-3; 30.5 µM (inactive) in the test on OVCAR-8; 20.3 µM (inactive) with SF-268; 6.32 µM (inactive) with SK-MEL-5. In addition, the GI50 in the test with SNB-19 is 36.6 µM (inactive); with SW-620, 20.9 µM (inactive); in the test with TK-10 it was 30.9 µM (inactive); with UO-31, 10 µM (inactive).
On to `[N-]=[N+]=NC[C@H]1OCO[C@H](CN=[N+]=[N-])[C@H]2OCCOCCOc3ccccc3OCCOCCO[C@@H]21`, for which the GI50 in the test with CAKI-1, in the test with CCRF-CEM, in the test on COLO 205, with DU-145, in the test on HCT-116 and in the test with LOX IMVI was > 100 µM (inactive) each time. In addition, the GI50 in the test with M14, with NCI-H226, with NCI-H460, with OVCAR-3, in the test on OVCAR-8 and with SF-268 was > 100 µM (inactive) in each case. For the same compound, the GI50 with SK-MEL-5 was > 100 µM (inactive); in the test on SNB-19 it was > 100 µM (inactive); with SNB-75, 76.4 µM (inactive); in the test with SW-620, > 100 µM (inactive); in the test on TK-10, > 100 µM (inactive); in the test with UO-31, 10.1 µM (inactive).
As to `CC(C)=CC1CC(=[N+]=[N-])C(=O)C1(C)C` (stereo unspecified), the GI50 in the test on A498 is > 100 µM (inactive); in the test on CAKI-1, > 100 µM (inactive); in the test on CCRF-CEM it was > 53 µM (inactive); with COLO 205 it was > 100 µM (inactive); with HCT-116 it was > 100 µM (inactive); in the test on LOX IMVI, > 75.7 µM (inactive). Also, the GI50 in the test on M14 was > 100 µM (inactive); in the test on NCI-H226, > 100 µM (inactive); in the test on NCI-H460, 99.5 µM (inactive); in the test on OVCAR-3, > 100 µM (inactive); in the test with OVCAR-8, > 100 µM (inactive); with SF-268, > 100 µM (inactive). In addition, the GI50 in the test with SK-MEL-5 was > 100 µM (inactive); in the test on SNB-19 it was > 100 µM (inactive); with SNB-75, > 46.7 µM (inactive); with SR, 23.1 µM (inactive); in the test on SW-620, > 100 µM (inactive); with TK-10 it was > 100 µM (inactive). Further, in the test with UO-31, the GI50 was > 59 µM (inactive).
For `CN1CCOC1(C)CO` (stereo unspecified), the GI50 in the test on A498, in the test on CAKI-1, in the test on CCRF-CEM, in the test on COLO 205, with HCT-116 and in the test with LOX IMVI was > 100 µM (inactive) each time. Besides, the GI50 in the test with M14, in the test with NCI-H226, with NCI-H460, in the test with OVCAR-3, in the test with OVCAR-8 and in the test on SF-268 was > 100 µM (inactive) throughout. Moreover, the GI50 with SK-MEL-5 is > 100 µM (inactive); with SNB-19 it was > 100 µM (inactive); in the test on SNB-75 it was 28.6 µM (inactive); with SR it was > 100 µM (inactive); in the test with SW-620 it was > 100 µM (inactive); in the test on TK-10, > 100 µM (inactive). For the same compound, the GI50 in the test with UO-31 is > 100 µM (inactive).
In the case of `COC(=O)C1=C(\O)C[C@@]2(C)CC[C@@H](C(=O)OC)C2C/C=C\1C(=O)OC` (stereo partly specified), the GI50 in the test on A498 is 23 µM (inactive); in the test with CAKI-1, > 100 µM (inactive); in the test with CCRF-CEM, > 100 µM (inactive); in the test on COLO 205, > 100 µM (inactive); in the test on HCT-116 it was 66.1 µM (inactive); in the test with LOX IMVI, > 100 µM (inactive). Also, the GI50 was > 100 µM (inactive) with M14; 89.1 µM (inactive) in the test on NCI-H226; > 100 µM (inactive) in the test on NCI-H460; > 100 µM (inactive) in the test with OVCAR-3; > 100 µM (inactive) with OVCAR-8; 70.5 µM (inactive) in the test on SF-268. Besides, the GI50 in the test on SK-MEL-5 is 48.9 µM (inactive); in the test on SNB-19 it was > 100 µM (inactive); with SNB-75, > 100 µM (inactive); in the test with SR it was 81.3 µM (inactive); with SW-620 it was > 100 µM (inactive); in the test with TK-10, > 100 µM (inactive). The GI50 in the test with UO-31 is 64 µM (inactive).
`Cc1cccc(-c2cc(=S)c3cc(N4CCCC4)ccc3[nH]2)c1`: the GI50 in the test on A498, in the test on CAKI-1, in the test with CCRF-CEM, in the test on COLO 205, in the test with DU-145 and with HCT-116 was > 100 µM (inactive) in each case. The GI50 in the test with LOX IMVI, in the test with M14, in the test on NCI-H226, in the test on OVCAR-3, in the test on SF-268 and in the test with SK-MEL-5 was > 100 µM (inactive) in each case. Also, the GI50 in the test on SNB-19, in the test on SNB-75, with SW-620, in the test on TK-10 and with UO-31 was > 100 µM (inactive) in each case.
Regarding `CN1CCOC(c2ccccc2)O1` (stereo unspecified), the GI50 with A498, with CAKI-1, with CCRF-CEM, in the test on COLO 205, in the test on HCT-116 and in the test on LOX IMVI was > 100 µM (inactive) each time. The GI50 with M14, in the test with NCI-H226, in the test on NCI-H460, with OVCAR-3, with OVCAR-8 and in the test on SF-268 was > 100 µM (inactive) each time. The GI50 in the test on SK-MEL-5, in the test with SNB-19, in the test on SNB-75, with SR, with SW-620 and in the test on TK-10 was > 100 µM (inactive) each time. For the same compound, the GI50 in the test with UO-31 was > 100 µM (inactive).
